Blank lines part the entries; values can stand above or below the molecule they belong to.
Experiments:
[1] = tested on: HEK293T/17-ATF4 uORF-Luc-Puro monoclonal cells; assay: Cellular activity assay: ATF4 luciferase reporter, thapsigargin-induced stress; assay type: cell-based; details: Homo sapiens, HEK-293T; ATF4 reporter expression; 50 nM thapsigargin, 6 h incubation
Text: The ATF4 luciferase reporter plasmid consists of two components: the 5' untranslated region sequence of the ATF4 gene and the luciferase encoding sequence. Specifically, the ATF4 5' untranslated region sequence (NCBI Database accession number BC022088.2) containing two upstream open reading frames (uORFs) and the firefly luciferase encoding gene were cloned into the pLVX-Puro vector (Unibio, VT1465). The packaging plasmids for lentivirus are psPAX2 (Unibio, VT1444) and pMD2.G (Unibio, VT1443). The three plasmids above were co-transfected into HEK293T/17 cells using X-tremeGENE 9 DNA transfection reagent, and the lentivirus-containing culture medium was collected 48 hours post-transfection. The HEK293T/17 cells transduced with the lentivirus were selected using 1 µg/mL puromycin, followed by obtaining a monoclonal cell line via limited dilution.
Using this cell line, the translational regulation of ATF4 can be detected via […], and the activity of the eIF2B activator can be tested. The specific experimental procedure was as follows: Seed 6,000 HEK293T/17-ATF4 uORF-Luc-Puro monoclonal cells in a 384-well plate and allow the cells to adhere overnight. The test compounds were dissolved in DMSO and added along with 50 nM thapsigargin into the cell culture medium, followed by incubation for 6 h. Thapsigargin was used to induce cellular stress, thereby upregulating translation of the ATF4 protein. After 6 hours of treatment, cells were lysed using the One-Glo Luciferase Assay Kit (Promega #E6120), then the luminescence values were measured using the LUM program of the EnVision 2104 plate reader.
The relative expression level of the ATF4 reporter gene (ATF4 reporter expression %) was calculated as follows: • ATF4 reporter expression %=(ave_sample-ave_vc)/(ave_pc-ave_vc)*100%. • ave_vc: mean signal value of negative control • ave_pc: mean signal value of positive control • ave_sample: mean signal value of sample
The EC50 value was calculated by fitting a dose-response curve: • The correspondence between the relative expression level of the ATF4 reporter gene and the compound concentration was fitted using the nonlinear regression log(inhibitor) vs. response - variable slope (four parameters) approach in GraphPad 9 software. • X axis: log of compound concentration; Y: relative expression level of ATF4 reporter gene. • Y = Bottom + (Top−Bottom)/(1+10^(∧)((LogEC50−X)*HillSlope)) [formula]

[2] = Pharmacokinetic assessment in mice; assay type: in vivo; details: plasma
Procedure: The test compound was dissolved in a solvent to prepare a clear solution or homogeneous suspension. Three mice per group were administered 1 mg/kg intravenously in the tails and 30 mg/kg orally (PO). Blood samples were collected at 0.083 h, 0.25 h, 0.5 h, 1 h, 2 h, 4 h, 8 h, and 24 h post intravenous administration, and at 0.25 h, 0.5 h, 1 h, 2 h, 4 h, 6 h, 8 h, and 24 h post oral administration. Plasma samples were centrifuged to obtain the supernatant, which was prepared as samples for quantitative analysis by LC/MS/MS. Table 2 PK Properties of Exemplary Compound 3 in Mice

[3] = Phase 1 data from healthy subjects; cited from earlier work
model animals = details: after three days of oral administration; cited from earlier work
mouse models = details: cited from earlier work

AUC(0-t) ([2]; mouse IV (1 mg/kg)): 6.32 µg·h/mL | C0 ([2]; mouse IV (1 mg/kg)): 2620 ng/mL | clearance ([2]; mouse IV (1 mg/kg)): 2.49 mL/min/kg | half-life ([2]; mouse IV (1 mg/kg)): 7.37 h | Vd ([2]; mouse IV (1 mg/kg), read-out: Vss): 1410 L/kg | AUC(0-t) ([2]; mouse PO (30 mg/kg)): 217 µg·h/mL | Cmax ([2]; mouse PO (30 mg/kg)): 20100 ng/mL | Tmax ([2]; mouse PO (30 mg/kg)): 2.33 h | bioavailability ([2]; mouse PO (30 mg/kg)): 114% | half-life ([2]; mouse PO (30 mg/kg)): 8.52 h
SMILES: O=C(CO[C@H]1C[C@@H](OC(F)(F)F)C1)NC12CC(Nc3nccnc3O[C@H]3C[C@@H](OC(F)(F)F)C3)(C1)C2 [Compound 3]
EC50 [1]: 1 to 10 nM

SMILES: O=C(COc1ccc(Cl)cc1)NC12CC(c3nnc([C@H]4C[C@@H](OC(F)(F)F)C4)o3)(C1)C2 [DNL-343]
safety and tolerability [3]: safe and well-tolerated

SMILES: O=C(COc1ccc(Cl)c(F)c1)N[C@H]1CC[C@H](Nc2ncccc2O[C@H]2C[C@@H](OC(F)(F)F)C2)CC1 [Compound 2]
EC50 [1]: > 100 nM

SMILES: NC(CO)(CO)CO.O=C(COc1ccc(Cl)c(F)c1)NC12CCC(NC(=O)COc3ccc(Cl)c(F)c3)(CC1)[C@@H](OCOP(=O)([O-])O)C2.[Na+] [ABBV-CLS-7262]
brain function (model animals): restored to youthful levels

SMILES: FC(F)(F)OC1CN(c2nnc([C@H]3CC[C@H](Nc4nccnc4O[C@H]4C[C@@H](OC(F)(F)F)C4)CC3)o2)C1 [Compound 4]
EC50 [1]: > 100 nM

SMILES: O=C(COc1ccc(Cl)cc1)NC1CCC(NC(=O)COc2ccc(Cl)cc2)CC1 (stereo not drawn) [ISRIB]
long-term memory (mouse models): improve long-term memory

SMILES: O=C(CO[C@H]1C[C@@H](OC(F)(F)F)C1)N[C@H]1CC[C@H](Nc2nccnc2O[C@H]2C[C@@H](OC(F)(F)F)C2)CC1 [Compound 5]
EC50 [1]: > 100 nM

SMILES: O=C(COc1ccc(Cl)c(F)c1)N[C@H]1CC[C@H](Nc2nccnc2O[C@H]2C[C@@H](OC(F)(F)F)C2)CC1 [Compound 1]
EC50 [1]: 10 to 100 nM

Reference: patent EP4745128A1, “COMPOUND, PHARMACEUTICAL COMPOSITION COMPRISING SAME, AND USE THEREOF” (Shenzhen Zhongge Biological Technology Co., Ltd., priority 2023, dated 2025)
